Measurements as given in ChEMBL document CHEMBL4251729, “Novel Triterpenone for Treatment of Viral Diseases-HIV Inhibitors” (ACS Med Chem Lett, 2018).

Legend:
[1] = tested on: Human immunodeficiency virus 1; experiment: Antiviral activity against HIV1 92HT599 infected in human MT2 cells assessed as reduction in p24 production in presence of 40% serum by ELISA; format: functional, organism-based; conditions: Human immunodeficiency virus 1, 92HT599, MT2
[2] = tested on: Human immunodeficiency virus 1; experiment: Antiviral activity against HIV1 92HT599 infected in human MT2 cells assessed as reduction in p24 production in absence of serum by ELISA; format: functional, organism-based
[3] = Human immunodeficiency virus 1, 92HT599, MT2

## CC(C)C1=C2[C@H]3CC[C@@H]4[C@@]5(C)CC[C@H](OC(=O)[C@H]6C[C@@H](C(=O)O)C6(C)C)C(C)(C)[C@@H]5CC[C@@]4(C)[C@]3(C)CC[C@@]2(c2ncc(-c3ccc(Cl)cc3)n2CCN(C)C)CC1=O [listing 1 of 2 here]
[1]
  IC50: > 0.05 µM
[2]
  IC50: < 0.01 µM

## CC(C)C1=C2[C@H]3CC[C@@H]4[C@@]5(C)CC[C@H](OC(=O)[C@H]6C[C@@H](C(=O)O)C6(C)C)C(C)(C)[C@@H]5CC[C@@]4(C)[C@]3(C)CC[C@@]2(c2nnc(-c3ccc(Cl)cc3)o2)CC1=O
[1]
  IC50: < 0.01 µM
[2]; [3]
  IC50: < 0.01 µM

## CC(C)C1=C2[C@H]3CC[C@@H]4[C@@]5(C)CC[C@H](OC(=O)[C@H]6C[C@@H](C(=O)O)C6(C)C)C(C)(C)[C@@H]5CC[C@@]4(C)[C@]3(C)CC[C@@]2(c2ncc(-c3ccc(F)cc3)[nH]2)CC1=O
[1]
  IC50: > 0.05 µM
[2]; [3]
  IC50: < 0.01 µM

## CC(C)C1=C2[C@H]3CC[C@@H]4[C@@]5(C)CC[C@H](OC(=O)[C@H]6C[C@@H](C(=O)O)C6(C)C)C(C)(C)[C@@H]5CC[C@@]4(C)[C@]3(C)CC[C@@]2(c2ncc(-c3ccc(Cl)cc3)n2CCN(C)C)CC1=O [listing 2 of 2 here]
[2]; [3]
  IC50: 0.01 to 0.05 µM

## CC(C)C1=C2[C@H]3CC[C@@H]4[C@@]5(C)CC[C@H](OC(=O)[C@H]6C[C@@H](C(=O)O)C6(C)C)C(C)(C)[C@@H]5CC[C@@]4(C)[C@]3(C)CC[C@@]2(c2ncc(-c3ccccc3)[nH]2)CC1=O
[1]
  IC50: 0.01 to 0.05 µM
[2]; [3]
  IC50: < 0.01 µM

## CC(C)C1=C2[C@H]3CC[C@@H]4[C@@]5(C)CC[C@H](OC(=O)[C@H]6C[C@@H](C(=O)O)C6(C)C)C(C)(C)[C@@H]5CC[C@@]4(C)[C@]3(C)CC[C@@]2(c2ncc(-c3ccc(Cl)cc3)[nH]2)CC1=O
[1]
  IC50: 0.01 to 0.05 µM
[2]; [3]
  IC50: < 0.01 µM
